Measurements taken from publication PMC10058583, “Development of Novel Fluorinated Polyphenols as Selective Inhibitors of DYRK1A/B Kinase for Treatment of Neuroinflammatory Diseases including Parkinson’s Disease” (Pharmaceuticals, 2023).
Read-outs that look alike come from different tables or passages of the source. One block for each compound: values may come before it.

Assays:
[1] = biological target: T1, 6xHis-tagged rat-truncated DYRK1A (residues 1-497) (Rattus norvegicus, UniProt Q63470); experiment: ELISA-based non-radioactive kinase assay, DYRK1A; assay type: biochemical
T1 construct: 6xHis-tagged rat-truncated DYRK1A (residues 1-497); 6xHis; made in house

[2] = biological target: T2, human DYRK2 isoform 1 (6xHis-tagged) (Homo sapiens, UniProt Q92630); experiment: ELISA-based non-radioactive kinase assay, DYRK2; assay type: biochemical
T2 sequence (Q92630 74-601 limits assumed): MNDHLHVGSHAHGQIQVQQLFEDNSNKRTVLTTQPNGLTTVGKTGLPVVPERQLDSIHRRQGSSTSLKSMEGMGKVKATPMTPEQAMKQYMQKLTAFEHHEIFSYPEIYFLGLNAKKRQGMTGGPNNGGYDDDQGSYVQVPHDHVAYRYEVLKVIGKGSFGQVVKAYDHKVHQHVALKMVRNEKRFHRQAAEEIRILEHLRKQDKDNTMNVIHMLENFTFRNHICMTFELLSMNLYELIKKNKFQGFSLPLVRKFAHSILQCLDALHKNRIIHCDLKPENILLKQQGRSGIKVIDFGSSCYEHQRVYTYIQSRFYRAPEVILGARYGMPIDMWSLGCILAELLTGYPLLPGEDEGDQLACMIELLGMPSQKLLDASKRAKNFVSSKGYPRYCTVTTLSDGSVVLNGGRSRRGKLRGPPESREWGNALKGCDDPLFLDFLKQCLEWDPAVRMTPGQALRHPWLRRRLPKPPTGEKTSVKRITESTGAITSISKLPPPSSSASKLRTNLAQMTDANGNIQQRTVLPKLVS
Protocol: (§1) DYRK1B was prepared from human DYRK1B isoform p65 as glutathione S-transferase fusion protein, and DYRK2 was prepared from human DYRK2 isoform 1 as 6xHis-tagged protein, as previously described.
(§2) For DYRK2, the reactions were performed exactly as described for DYRK1A. For DYRK1B, the assays were similarly conducted but with 30 ng GST-DYRK1B and a kinase reaction time of 60 min.

[3] = test system: DYRK1A; details: cited from earlier work
[4] = test system: DYRK1B; details: read-out: published IC50 DYRK1B; cited from earlier work
[5] = test system: DYRK2; details: read-out: published IC50 DYRK2; cited from earlier work
[6] = biological target: T3, human DYRK1B isoform p65 (GST fusion) (Homo sapiens, UniProt Q9Y463); experiment: ELISA-based non-radioactive kinase assay, DYRK1B; assay type: biochemical; details: 30 ng GST-DYRK1B, 60 min reaction
T3 construct: made in house
T3 sequence (Q9Y463 1-589 isoform Q9Y463-2): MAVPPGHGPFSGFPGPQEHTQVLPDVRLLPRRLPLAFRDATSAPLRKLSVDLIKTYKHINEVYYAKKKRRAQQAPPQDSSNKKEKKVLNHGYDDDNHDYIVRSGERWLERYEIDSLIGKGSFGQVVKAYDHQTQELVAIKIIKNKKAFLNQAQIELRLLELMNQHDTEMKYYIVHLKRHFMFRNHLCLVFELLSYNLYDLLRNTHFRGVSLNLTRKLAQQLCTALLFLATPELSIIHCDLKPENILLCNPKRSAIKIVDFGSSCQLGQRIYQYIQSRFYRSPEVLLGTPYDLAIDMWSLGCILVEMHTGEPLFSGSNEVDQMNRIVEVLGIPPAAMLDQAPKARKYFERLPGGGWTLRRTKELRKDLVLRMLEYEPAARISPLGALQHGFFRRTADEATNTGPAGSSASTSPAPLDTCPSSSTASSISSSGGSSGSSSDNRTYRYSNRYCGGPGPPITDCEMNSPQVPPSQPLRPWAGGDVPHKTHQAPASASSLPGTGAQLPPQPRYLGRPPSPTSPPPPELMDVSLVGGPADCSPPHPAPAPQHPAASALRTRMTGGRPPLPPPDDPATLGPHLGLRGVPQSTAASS
Protocol: as §1, §2

[7] = Pharmacokinetic studies in C57BL/6 mice (plasma and tissues); assay type: in vivo, mouse; details: PO (100 mg/kg)
Protocol: To overcome the generally poor PK profile of catechins, we developed a proprietary formulation that allows for the delivery of these drugs in high concentrations for oral (PO) or intranasal (IN) use. Our liquid formulation is based on the solubilizer and penetration enhancer (2-hydroxypropyl)-β-cyclodextrin (HP-β-CD), PEG-400, and water. This vehicle allows us to achieve high drug concentration in dosing solution (up to 20% w/w) when needed. PK studies were conducted for 1c in adult male and female C57BL/6 mice (n = 3/sex/time point) using (1) a single IV dose (5 mg/kg), (2) an IN dose (60 mg/kg, 5 µL of a clear solution/nostril/twice), and (3) a single PO dose (100 mg/kg). We analyzed the concentration of the drug in several tissues, including the brain, lungs, liver, and plasma. We observed that this class of molecules is stable in circulation; however, when the tissues are harvested for bioanalytical work, the drug undergoes rapid degradation, probably because of the direct contact with oxygen and metals, which catalyzes its rapid degradation/oxidation. We were able to stabilize the drug in blood by the immediate addition of ascorbic acid and TCEP [29]; however, the same was not possible with solid organs such as the brain and liver, which need to be collected through surgery and homogenized before any stabilizing agent can be added. Therefore, tissue PK data tend to vary.
C57BL/6J mice were given a single dose of drug via the IN or PO route. […] For PO delivery, we replaced water with saline. The volume for IN delivery was 5 µL/nostril, and the volume used for oral delivery was 10 mL/kg. After sacrifice, blood (500 µL) was collected into K2EDTA microtubes and kept on ice all times (must be centrifuged within 30 min of collection). Blood was centrifuged in EDTA vacuum at 4 °C at 15,000× g for 4 min; ~250 µL of plasma was collected into polyethylene tubes containing 50 µL of AA/TCEP stabilizing solution (20 mM ascorbic acid and 13 mM TCEP in 50 mM K2HPO4 buffer; the pH of the solution was adjusted to 6.5 using 2 M NaOH). Then, 200 µL of the collected plasma was mixed with (1) 24 µL of a solution of 10% ascorbic acid and 0.1% EDTA in 40 mM NaH2PO4; (2) 40 µL of 50 mM sodium phosphate (pH 7.4); (3) 500 units of β-D-glucuronidase type X-A from Escherichia coli (Sigma Chemical Co, St Louis, MO, USA), and (4) 4 units of sulfatase type VIII from abalone entrails (Sigma Chemical Co). The mixture was incubated at 37 °C for 45 min. Plasma was then extracted by the addition of 0.5 mL ACN; the mixture was vortex-mixed for 2 min, then snap-frozen with isopropanol/carbon dioxide dry ice, and the upper layer of ACN was removed. The process was repeated another 2 times. The ACN fractions were pooled into a polyethylene tube kept on ice. The combined fractions were evaporated under a gentle stream of nitrogen at ambient temperature. The residue obtained after evaporation was reconstituted in 200 µL of 75 mM citric acid//25 mM ammonium acetate: ACN (75:25 by vol), and vortexed vigorously for 5 min, and 20 µL of the resulting solution was injected into the LC-MS/MS column.
Drug analysis in tissues: About ~0.4 g of the tissue was homogenized with 1 mL of ice-cold 0.4 M sodium phosphate buffer containing 6 mg of ascorbic acid and 0.5 mg of Na2EDTA (final pH of 6.5). After centrifugation at 4 °C at 15,000× g for 4 min, the supernatant was collected into polyethylene tubes containing 50 µL of the AA/TCEP stabilizing solution. Then 1 U of sulfatase and 250 U of β-glucuronidase were added to the abovementioned homogenized mixture. Samples were incubated at 37 °C for 45 min, then extracted, dried, and resuspended in a manner similar to that for plasma. Samples were then analyzed by LC-MS/MS.

[8] = test system: LPS-induced inflammation in C57BL/6J mice; experiment: LPS-induced inflammation model; assay type: in vivo, mouse; details: positive control 1 mg/kg PO, LPS i.p. 750 µg/kg
Protocol: Neuroinflammation is an important factor contributing to cognitive impairment and neurodegenerative diseases such as PD, and the administration of LPS is frequently used to study neuroinflammation-associated diseases in mice.
Each group consisted of six male mice. […] Animals were pretreated for 3 days with the drug of choice; then, treatment with LPS commenced on day 0, and on the 5th day of LPS treatment, the drug was administered half an hour before LPS injection. One hour after LPS treatment, the animals were anesthetized with a mixture of ketamine, xylazine 2%, atropine, and saline (4:2.5:1:2.5). The body temperature of mice under anesthesia was maintained by applying a heating blanket and monitored using a rectal thermometer. After anesthesia, the animals underwent cardiac perfusion with ice-cold saline for three minutes (3 mL/minute via peristaltic pump) via the left ventricle. The right atrium was cut as an outflow route. The right hemisphere was post-fixed overnight in 4% PFA in PBS at 4 °C and stored in 1xPBS containing 0.1% (v/w) sodium azide at 4 °C. The left hemisphere, hippocampus, cortex, midbrain, and brainstem were microdissected, immersed in liquid nitrogen in separate tubes (with one-fifth of the rest of the brain tissue), and stored in microfuge tubes at −80°. TNFα (in both plasma and the hippocampus) was analyzed with ELISA, and the p-tau (AT-8 antibody) level was recorded in the hippocampus and cortex with WB.

[9] = both sexes, C57BL/6, mouse, plasma

SMILES: COc1cc(N2CCN(C)CC2)ccc1Nc1nccc(-c2cn(C)c3cnccc23)n1 [AZ-191]
IC50 [1]: 98 nM | IC50 [2]: 1720 nM | IC50 ([3]; read-out: published IC50 DYRK1A): 88 nM | IC50 [4]: 17 nM | IC50 [5]: 1890 nM

IC50 ([1]; read-out: DYRK1A IC50): 35 nM | IC50 [6]: 42 nM | IC50 [2]: 258 nM
SMILES: O=C(O[C@@H]1Cc2c(O)cc(O)cc2O[C@H]1c1cc(O)c(O)c(O)c1)c1cc(O)c(O)c(O)c1F [Compound 1a]

improvement in anti-DYRK1A activity compared to EGCG [1]: eightfold | IC50 ([1]; read-out: DYRK1A IC50): 28 nM | IC50 [6]: 45 nM | IC50 [2]: 181 nM | bioavailability (in words) [7]: much lower than that of 1c | Tlast ([7]; plasma): 24 h | AUC(0-inf) [7, 9]: 472 ng·h/mL | AUC(0-t) [7, 9]: 379 ng·h/mL | Cmax [7, 9]: 131 ng/mL | Tmax [7, 9]: 0.5 h | half-life [7, 9]: 12.7 h
SMILES: O=C(O[C@@H]1Cc2c(O)cc(O)cc2O[C@H]1c1cc(O)c(O)c(O)c1)c1c(F)c(O)c(O)c(O)c1F [Compound 1b]

IC50 ([1]; read-out: DYRK1A IC50): 152 nM
SMILES: COc1c(O)c(O)cc(C(=O)O[C@@H]2Cc3c(O)cc(O)cc3O[C@H]2c2cc(O)c(O)c(O)c2)c1F [Compound 1d]

IC50 ([1]; read-out: DYRK1A IC50): 125 nM
SMILES: COc1c(O)c(O)c(F)c(C(=O)O[C@@H]2Cc3c(O)cc(O)cc3O[C@H]2c2cc(O)c(O)c(O)c2)c1F [Compound 1e]

IC50 ([1]; read-out: DYRK1A IC50): 252 nM
SMILES: O=C(O[C@@H]1Cc2c(O)cc(O)cc2O[C@H]1c1cc(O)c(O)c(O)c1)c1cc(O)c(O)c(OC(F)F)c1 [Compound 1f]

IC50 ([1]; read-out: DYRK1A IC50): 136 nM
SMILES: O=C(O[C@@H]1Cc2c(O)cc(O)cc2O[C@H]1c1cc(O)c(O)c(O)c1)c1cc(OC(F)F)c(O)c(O)c1F [Compound 1g]

IC50 ([1]; read-out: DYRK1A IC50): 356 nM
SMILES: CC(C)Oc1c(O)c(O)c(F)c(C(=O)O[C@@H]2Cc3c(O)cc(O)cc3O[C@H]2c2cc(O)c(O)c(O)c2)c1F [Compound 1h]

SMILES: C[C@@H]1C[C@H]2[C@@H]3CCC4=CC(=O)C=C[C@]4(C)[C@@]3(F)[C@@H](O)C[C@]2(C)[C@@]1(O)C(=O)CO [Dexamethasone, reference compound]
efficacy in plasma [8]: high efficacy

SMILES: O=C(O[C@@H]1Cc2c(O)cc(O)cc2O[C@@H]1c1cc(O)c(O)c(O)c1)c1cc(O)c(O)c(O)c1 [EGCG, epigallocatechin gallate, reference compound]
IC50 [2]: 1490 nM | AUC(0-inf) [7, 9]: 395 ng·h/mL | AUC(0-t) [7, 9]: 360 ng·h/mL | Cmax [7, 9]: 55 ng/mL | half-life [7, 9]: 5.02 h | bioavailability ([7]; both sexes, C57BL/6, mouse, plasma, po, 100 mg/kg, plasma, read-out: F (absolute bioavailability)): 2% | IC50 ([3]; allosteric inhibitor, read-out: DYRK1A in vitro IC50): 300 to 400 nM

SMILES: O=C(O[C@@H]1Cc2c(O)cc(O)cc2O[C@H]1c1cc(O)c(O)c(O)c1)c1cc(O)c(O)c(O)c1 [GCG, reference compound]
IC50 [2]: 574 nM

IC50 ([1]; read-out: DYRK1A IC50): 206 nM
SMILES: COc1cc(C(=O)OC2Cc3c(O)cc(O)cc3OC2c2cc(O)c(O)c(O)c2)cc(O)c1O (stereo not shown) [GCG-3”OMe, reference compound]
